According to patent publication US10821152B2, “Methods, agents and compositions for treatment of inflammatory conditions” (Betanien Hospital, priority 2014, dated 2020):
Several values for one entry are separate records, joined by “and”; a condition that tells them apart may be missing. Equal values may be shown once. Non-standard residues stand in square brackets, D forms with d. Residues, ends and D or L forms follow the SMILES beside them. *: point of attachment. dPhe(4-NHCONH2) = NC(=O)Nc1ccc(C[C@@H](N)C(=O)O)cc1; Dihydroorotyl(S) = O=C1C[C@@H](C(=O)*)NC(=O)N1; dPhe(4-Cl) = N[C@H](Cc1ccc(Cl)cc1)C(=O)O; Phe(4-NH2) = Nc1ccc(C[C@H](N)C(=O)O)cc1; d2Nal = N[C@H](Cc1ccc2ccccc2c1)C(=O)O; Lys(iPr) = CC(C)NCCCC[C@H](N)C(=O)O; d3Pal = N[C@H](Cc1cccnc1)C(=O)O

What was measured:
Type in all cases: in vivo, human
[1] = tested on: patients with rheumatoid arthritis; experiment: Long term Degarelix treatment of rheumatoid arthritis patients: clinical variables; design: LH: unit not given beside the values
Description: [table] [table] […] Two examples of patients with continued RA improvement over several weeks despite stably low levels of LH

[2] = Peripheral GnRH levels by ELISA in patients with autoimmune diseases; conditions: RA Pt A
Description: (§1) We analysed peripheral GnRH levels in patients with various autoimmune diseases using ELISA. […] Due to the nature of ELISA assays, the concentration in pg/mL should not necessarily be regarded as absolute, and may be interpreted as relative.

peripheral GnRH = experiment: as above
Description: as §1

[3] = tested on: patient with ankylosing spondylitis; experiment: Treatment of ankylosing spondylitis patient (BASDAI, laboratory variables); conditions: AS patient
Description: Diagnosed with ankylosing spondylitis in 1984, HLAB27 positive, with repeated iridocyclitis. Used non-steroidal anti-inflammatory drugs previously. They were offered the TNF-alpha inhibitor Golilimumab in 2010. Their disease activity score was 8.9 in October 2010 (see below for explanation of disease activity score) on initiating Golilimumab; by the June 2012 this score had reduced to 6.6, but by May 2013 the effect had worn off and their score was 7.6. May 2013, they initiated Enbrel treatment, but their disease activity increased from 7.6 to 8.3. Due to their poor response to TNF-alpha therapy, they were offered the GnRH antagonist Degarelix in September 2014.
Disease activity in ankylosing spondylitis is measured by the BASDAI (Bath Ankylosing Spondylitis Disease Activity Index1), has been extensively validated in clinical trials, 2, 3 and is one of the most commonly used outcome measures in clinical trials. This is a componsite index that evaluates fatigue, axial and peripheral pain, stiffness and enthesopathy. Their BASDAI was at 8.7 at baseline. In September 2014 they received their first dose of Degarelix 240 mg sc. By 2 weeks, their BASDAI had reduced to 6.8, and by 6 weeks it had reduced to 5.8. This is the lowest BASDAI score they have ever had since we first started using this method of assessment 4 years ago in 2010. Their morning stiffness lasted 4 hours at baseline, by 6 weeks their morning stiffness had reduced to 2 hours. They had their second dose of Degarelix 80 mg s.c in October 2014. Lumbar flexion and maximum arm abduction were increased after 6 weeks of treatment.
Response to therapy in clinical practice is defined as improvement of 2 units or 50% on a 0-10 scale of the BASDAI, and expert opinion that the treatment should be continued. Their reduction by 6 weeks was 2.9 units, and 7.1 units with an 82% BASDAI score improvement by 9 weeks, and we shall continue treatment. A BASDAI 50% improvement is defined as a major clinical response. […] For comparison, approximately 50-60% of patients achieve a BASDAI 50 by 12 weeks on TNF inhibitors (4). Their ESR has decreased from 46 mm to 23 mm, which is their lowest ESR reading in 19 years. […] By 9 weeks of GnRH antagonist therapy, their kidney function has normalized, and fasting glucose reduced from 7.4 to 6.5 mmol/L. By 3 months, the effect on their ankylosing spondylitis remained, creatinine was at 98 umol/L, with a glomerular filtration rate of 66 ml/min/1.73 m2 in December 2014.

[4] = tested on: patient with lithium induced psoriasis; experiment: Treatment of psoriasis (PASI, serum uric acid, testosterone)
Experimental: The PASI score is a standardized score for assessing disease activity in psoriasis.
He therefore received testosterone supplementation in the form of Testogel containing 50 mg of testosterone, first daily; thereafter every 3 days to maintain testosterone levels within the normal range.
There are very few trials of lithium induced psoriasis. One trial examined 15 patients with psoriasis who were taking lithium.

Question: With `CC(=O)N[C@H](Cc1ccc2ccccc2c1)C(=O)N[C@H](Cc1ccc(Cl)cc1)C(=O)N[C@H](Cc1cccnc1)C(=O)N[C@@H](CO)C(=O)N[C@@H](Cc1ccc(NC(=O)[C@@H]2CC(=O)NC(=O)N2)cc1)C(=O)N[C@H](Cc1ccc(NC(N)=O)cc1)C(=O)N[C@@H](CC(C)C)C(=O)N[C@@H](CCCCNC(C)C)C(=O)N1CCC[C@H]1C(=O)N[C@H](C)C(N)=O` [Degarelix] (Ac-[d2Nal][dPhe(4-Cl)][d3Pal]S[Phe(4-NH2)](Dihydroorotyl(S))[dPhe(4-NHCONH2)]L[Lys(iPr)]P[dA]-NH2) as the compound, how does the ACR % response ([1]; RA Patient 3, 4 wks) read?
Answer: 30%

Question: And the ESR ([1]; RA Patient 3, 4 wks)?
Answer: 41

Question: What about the LH ([1]; RA Patient 3, 4 wks) of the same compound?
Answer: <0.3

Question: And the ACR % response ([1]; RA Patient 3, 8 wks)?
Answer: 40%

Question: And the ESR ([1]; RA Patient 3, 8 wks)?
Answer: 36

Question: And the LH ([1]; RA Patient 3, 8 wks)?
Answer: <0.3

Question: What about the ACR % response ([1]; RA Patient 3, 12 wks) of the same compound?
Answer: 50%

Question: What about the ESR ([1]; RA Patient 3, 12 wks) of the same compound?
Answer: 20

Question: What about the LH ([1]; RA Patient 3, 12 wks) of the same compound?
Answer: <0.3

Question: And the ESR ([1]; RA Patient 3, baseline)?
Answer: 46

Question: What about the LH ([1]; RA Patient 3, baseline) of the same compound?
Answer: 2

Question: And the ACR % response ([1]; RA Patient 4, 3½ wks)?
Answer: 20%

Question: What about the ESR ([1]; RA Patient 4, 3½ wks) of the same compound?
Answer: 68

Question: What about the LH ([1]; RA Patient 4, 3½ wks) of the same compound?
Answer: <0.3

Question: And the ACR % response ([1]; RA Patient 4, 9 wks)?
Answer: 50%

Question: And the ESR ([1]; RA Patient 4, 9 wks)?
Answer: 36

Question: And the LH ([1]; RA Patient 4, 9 wks)?
Answer: <0.3

Question: And the ESR ([1]; RA Patient 4, baseline)?
Answer: 78

Question: What about the LH ([1]; RA Patient 4, baseline) of the same compound?
Answer: 8

Question: And the “power Doppler (inflammatory activity) on ultrasound, shoulder and right MCP 4” value ([1]; RA Patient 5, after treatment (FIG. 2B, 2D, 2F))?
Answer: no power Doppler

Question: What about the “effusion over the right wrist on ultrasound” value ([1]; RA Patient 6, by 3.5 weeks (FIG. 4)) of the same compound?
Answer: much smaller

Question: What about the “Physician assessment (0-100)” value ([1]; baseline, c1-c6=RA Patients 1-6) of the same compound?
Answer: 85 and 90 and 80 and 70

Question: What about the CRP ([2]; after 3 months) of the same compound?
Answer: 54 mg/L

Question: What about the DAS score ([2]; after 3 months) of the same compound?
Answer: 4.2

Question: What about the CRP ([2]; baseline) of the same compound?
Answer: 142 mg/L

Question: What about the DAS score ([2]; baseline) of the same compound?
Answer: 8.6

Question: What about the “peripheral GnRH” value (peripheral GnRH; Multiple Sclerosis Patient B, after 1 month) of the same compound?
Answer: 210 pg/mL

Question: And the “peripheral GnRH” value (peripheral GnRH; Multiple Sclerosis Patient B, baseline)?
Answer: 318 pg/mL

Question: And the “peripheral GnRH” value (peripheral GnRH; Psoriasis Patient C, after 3 months)?
Answer: 274 pg/mL

Question: And the “peripheral GnRH” value (peripheral GnRH; Psoriasis Patient C, baseline)?
Answer: 300 pg/mL

Question: And the “peripheral GnRH” value (peripheral GnRH; RA Pt A, after 3 months, 240 mg loading, 80 mg every 2 weeks)?
Answer: 359 pg/mL

Question: What about the “peripheral GnRH” value (peripheral GnRH; RA Pt A, baseline) of the same compound?
Answer: 394 pg/mL

Question: What about the “ASAS response (at least 80% improvement)” value [3] of the same compound?
Answer: achieved an ASAS 80

Question: And the CRP ([3]; 10.09.14 (baseline))?
Answer: <5

Question: And the “Creatinine (60-105 umol/L)” value ([3]; 10.09.14 (baseline))?
Answer: 112↑ umol/L

Question: And the “ESR <20 mm” value ([3]; 10.09.14 (baseline))?
Answer: 46 mm and 46↑ mm

Question: And the “Glomerular filtration rate (>60 ml/min/1.73 m^2)” value ([3]; 10.09.14 (baseline))?
Answer: 56↓ ml/min/1.73 m^2

Question: And the “Glucose fasting (4.0-6.0 mmol/L)” value ([3]; 10.09.14 (baseline))?
Answer: 7.4 mmol/L

Question: And the “Urate (230-480 umol/L)” value ([3]; 10.09.14 (baseline))?
Answer: 515 umol/L and 515↑ umol/L

Question: And the CRP ([3]; 10.11.14)?
Answer: <5

Question: What about the “Creatinine (60-105 umol/L)” value ([3]; 10.11.14) of the same compound?
Answer: 99 µmol/L

Question: And the “Glomerular filtration rate (>60 ml/min/1.73 m^2)” value ([3]; 10.11.14)?
Answer: 65 ml/min/1.73 m^2

Question: And the “Urate (230-480 umol/L)” value ([3]; 10.11.14)?
Answer: 426 µmol/L

Question: What about the “Glucose fasting (4.0-6.0 mmol/L)” value ([3]; 10.11.14 (by 9 weeks)) of the same compound?
Answer: 6.5 mmol/L

Question: What about the CRP ([3]; 24.09.14) of the same compound?
Answer: <5

Question: What about the “Creatinine (60-105 umol/L)” value ([3]; 24.09.14) of the same compound?
Answer: 114↑ umol/L

Question: And the “ESR <20 mm” value ([3]; 24.09.14)?
Answer: 31↑ mm

Question: And the “Glomerular filtration rate (>60 ml/min/1.73 m^2)” value ([3]; 24.09.14)?
Answer: 55↓ ml/min/1.73 m^2

Question: And the “Urate (230-480 umol/L)” value ([3]; 24.09.14)?
Answer: 512↑ umol/L

Question: What about the CRP ([3]; 27.10.14) of the same compound?
Answer: <5

Question: What about the “Creatinine (60-105 umol/L)” value ([3]; 27.10.14) of the same compound?
Answer: 111↑ umol/L

Question: And the “ESR <20 mm” value ([3]; 27.10.14)?
Answer: 28↑ mm

Question: And the “Glomerular filtration rate (>60 ml/min/1.73 m^2)” value ([3]; 27.10.14)?
Answer: 56↓ ml/min/1.73 m^2

Question: And the “Urate (230-480 umol/L)” value ([3]; 27.10.14)?
Answer: 495↑ umol/L

Question: And the “Lumbar flexion and maximum arm abduction” value ([3]; after 6 weeks of treatment)?
Answer: increased

Question: And the BASDAI ([3]; baseline)?
Answer: 8.7

Question: And the morning stiffness ([3]; baseline)?
Answer: 4 h

Question: And the BASDAI ([3]; by 2 weeks)?
Answer: 6.8

Question: What about the creatinine ([3]; by 3 months (December 2014)) of the same compound?
Answer: 98 µmol/L

Question: And the glomerular filtration rate ([3]; by 3 months (December 2014))?
Answer: 66 ml/min/1.73 m2

Question: And the BASDAI ([3]; by 6 weeks)?
Answer: 5.8

Question: What about the BASDAI reduction ([3]; by 6 weeks) of the same compound?
Answer: 2.9 units

Question: And the morning stiffness ([3]; by 6 weeks)?
Answer: 2 h

Question: What about the BASDAI reduction ([3]; by 9 weeks) of the same compound?
Answer: 7.1 units

Question: What about the BASDAI score improvement ([3]; by 9 weeks) of the same compound?
Answer: 82%

Question: What about the kidney function ([3]; by 9 weeks) of the same compound?
Answer: normalized

Question: And the “testosterone levels (normal 8-35 nmol/L)” value ([4]; after the first week)?
Answer: < 1 nmol/L

Question: What about the improvement in psoriasis ([4]; at 6 months) of the same compound?
Answer: stable

Question: And the “Psoriasis Area Severity Index (PASI) score” value ([4]; baseline)?
Answer: 53.6

Question: And the “serum uric acid (230-480 umol/L)” value ([4]; baseline)?
Answer: 485 µmol/L

Question: What about the “testosterone levels (normal 8-35 nmol/L)” value ([4]; before therapy) of the same compound?
Answer: 12 nmol/L

Question: And the PASI reduction ([4]; by 8 weeks)?
Answer: 23%

Question: What about the “serum uric acid (230-480 umol/L)” value ([4]; by 8 weeks) of the same compound?
Answer: 432 µmol/L

Question: What about the “testosterone levels (normal 8-35 nmol/L)” value ([4]; week 8, under testosterone substitution (Testogel)) of the same compound?
Answer: 9 nmol/L
